Values quoted from earlier work as cited in publication PMC3362725, “An open-label, phase 1 study evaluating safety, tolerability, and pharmacokinetics of linifanib (ABT-869) in Japanese patients with solid tumors” (Cancer Chemotherapy and Pharmacology, 2012).

Design: method as in PMID 17634482, PMID 17557949, PMID 21131369
Settings: mixed-population TKI phase 1 studies, phase 2 recommended dose levels; cited from earlier work

SMILES | patients with Grade 3 hypertension
Cc1cc2c(F)c(Oc3ncnn4cc(OC[C@@H](C)O)c(C)c34)ccc2[nH]1 [brivanib] | 14–20%
CC1(C)CNc2cc(NC(=O)c3cccnc3NCc3ccncc3)ccc21 [motesanib] | 14–20%
